Laboratory results taken from ChEMBL document CHEMBL4411307, “N,N'-diaryl-bishydrazones in a biphenyl platform: Broad spectrum antifungal agents” (Eur J Med Chem, 2019).
Values after ≈ are worked out from the molar mass of the structure shown. Active and inactive are the calls of the source. The rule behind the calls is not given here.

Experiments:
Candida albicans [1] = experiment: Antifungal activity against fluconazole/ITC-resistant Candida albicans ATCC 90819 measured after 48 hrs by CLSI M27-A3 protocol based method; assay type: functional; conditions: ATCC 90819, 48 h
[2] = Selectivity index, ratio of compound concentration showing <20 to <30% hemolysis in mouse RBC to MIC for fluconazole/ITC-resistant Candida albicans ATCC MYA-1237; assay type: toxicity; conditions: mouse red blood cells (RBC), read-out: Selectivity Index
[3] = Selectivity index, ratio of CC50 for human A549 cells to MIC for Aspergillus terreus ATCC MYA-3633; assay type: toxicity; conditions: read-out: Selectivity Index
Enterococcus = experiment: Antibacterial activity against vancomycin-resistant Enterococcus; assay type: functional, organism-based
Candida albicans [4] = experiment: Antifungal activity against fluconazole/ITC-resistant Candida albicans ATCC 64124 measured after 48 hrs by CLSI M27-A3 protocol based method; assay type: functional; conditions: ATCC 64124, 48 h
[5] = Selectivity index, ratio of CC50 for human A549 cells to MIC for fluconazole/ITC-resistant Candida albicans ATCC 10231; assay type: toxicity; conditions: read-out: Selectivity Index
Aspergillus terreus = experiment: Antifungal activity against Aspergillus terreus ATCC MYA-3633 measured after 48 hrs by CLSI M38-A2 protocol based method; assay type: functional; conditions: ATCC MYA-3633, 48 h
[6] = Hemolytic activity in mouse RBC at […] ug/ml after 1 hr relative to control; assay type: ADME, cell-based, Erythrocyte; conditions: red blood cells (erythrocytes), read-out: Activity
[7] = Hemolytic activity in mouse RBC at […] after 1 hr relative to control; assay type: ADME, cell-based, Erythrocyte; conditions: red blood cells (erythrocytes), read-out: Activity; also: tested at 0.48 µg/mL
[8] = Selectivity index, ratio of compound concentration showing <20 to <30% hemolysis in mouse RBC to MIC for fluconazole/ITC-susceptible Candida albicans ATCC MYA-2310; assay type: toxicity; conditions: mouse red blood cells (RBC), read-out: Selectivity Index
[9] = Selectivity index, ratio of compound concentration showing <20 to <30% hemolysis in mouse RBC to MIC for Aspergillus terreus ATCC MYA-3633; assay type: toxicity; conditions: mouse red blood cells (RBC), read-out: Selectivity Index
[10] = Selectivity index, ratio of CC50 for human A549 cells to MIC for Candida parapsilosis ATCC 22019; assay type: toxicity; conditions: read-out: Selectivity Index
Candida albicans [11] = experiment: Selectivity ratio of MIC90 for antibiofilm activity against fluconazole/ITC-resistant Candida albicans ATCC 10231 assessed as reduction in sessile growth to MIC for fluconazole/ITC-resistant Candida albicans ATCC 10231; assay type: functional
Candida albicans [12] = experiment: Fungicidal activity against fluconazole/ITC-resistant Candida albicans ATCC 10231 assessed as reduction in fungal growth at 0.5 to 2 times MIC incubated for 24 hrs followed by replating on PDA plates measured after 48 hrs Time-Kill assay; assay type: functional, organism-based
[13] = Selectivity index, ratio of CC50 for human A549 cells to MIC for fluconazole/ITC-susceptible Candida albicans ATCC MYA-2310; assay type: toxicity; conditions: read-out: Selectivity Index
Candida albicans [14] = experiment: Antifungal activity against fluconazole/ITC-resistant Candida albicans ATCC MYA-1237 measured after 48 hrs by CLSI M27-A3 protocol based method; assay type: functional; conditions: ATCC MYA-1237, 48 h
[15] = Selectivity index, ratio of CC50 for human A549 cells to MIC for Aspergillus flavus ATCC MYA-3631; assay type: toxicity; conditions: read-out: Selectivity Index
Candida albicans [16] = experiment: Antifungal activity against fluconazole/ITC-resistant Candida albicans ATCC 10231 measured after 48 hrs by CLSI M27-A3 protocol based method; assay type: functional; conditions: ATCC 10231, 48 h
Listeria monocytogenes = experiment: Antibacterial activity against Listeria monocytogenes; assay type: functional, organism-based
Candida albicans [17] = experiment: Antibiofilm activity against fluconazole/ITC-resistant Candida albicans ATCC 10231 assessed as reduction in sessile growth after 24 hrs by XTT assay; assay type: functional; conditions: ATCC 10231, 24 h
[18] = Selectivity index, ratio of compound concentration showing <20 to <30% hemolysis in mouse RBC to MIC for Candida krusei ATCC 6258; assay type: toxicity; conditions: mouse red blood cells (RBC), read-out: Selectivity Index
Staphylococcus aureus = experiment: Antibacterial activity against methicillin-resistant Staphylococcus aureus; assay type: functional, organism-based

Molecule `C/C(=N\Nc1ccc(F)cc1)c1ccc(-c2ccc(/C(C)=N/Nc3ccc(F)cc3)cc2)cc1` has an MIC (Candida albicans [1]) of 7.8 µg/mL (≈ 17.2 µM), a selectivity ratio [2] of 1 to 32 and a selectivity ratio [3] of 0.5. For the same molecule, the Activity (Enterococcus) was “inactive”, the MIC (Candida albicans [4]) was 3.9 µg/mL (≈ 8.58 µM) and the selectivity ratio [5] was 8.5. For the same molecule, the MIC (Aspergillus terreus) was > 31.3 µg/mL, the hemolysis at 1 h, 15.6 ug/ml ([6]; at 15.6 µg/mL) was 7.4% and the hemolysis at 1 h, 0.975 ug/ml [6] was 1.4%. For the same molecule, the hemolysis at 1 h, […] [7] was 0%, the selectivity ratio [8] was 1 to 32 and the selectivity ratio [9] was 1 to 32. For the same molecule, the selectivity ratio [10] was 1.1, the selectivity ratio (Candida albicans [11]) was 16 and the Activity (Candida albicans [12]) was “Active”. For the same molecule, the selectivity ratio [13] was 8.5, the MIC (Candida albicans [14]) was 7.8 µg/mL (≈ 17.2 µM) and the selectivity ratio [15] was 0.5. The MIC (Candida albicans [16]) was 1.95 µg/mL (≈ 4.29 µM), the Activity (Listeria monocytogenes) was “inactive” and the MIC50 (Candida albicans [17]) was 8 µg/mL (≈ 17.6 µM). The MIC90 (Candida albicans [17]) was > 32 µg/mL, the selectivity ratio [18] was 1 to 32 and the Activity (Staphylococcus aureus) was “inactive”.
